Test results reported in ChEMBL document CHEMBL5532675, “Discovery of 4-Ethoxy-6-chloro-5-azaindazoles as Novel PDE4 Inhibitors for the Treatment of Alcohol Use Disorder and Alcoholic Liver Diseases” (J Med Chem, 2024).
pIC50: −log10 of the molar value. Active and inactive are the calls of the source. No cut-off for these calls is given here.

Assays:
[1] = biological target: High affinity cAMP-specific and IBMX-insensitive 3',5'-cyclic phosphodiesterase 8A (Homo sapiens) (UniProt O60658); assay: Inhibition of PDE8A1 (unknown origin) using FAM-cyclic-3',5'-AMP as substrate at 10 uM incubated for 1 hrs by fluorescence polarization based IMAP assay relative to control
Sequence of High affinity cAMP-specific and IBMX-insensitive 3',5'-cyclic phosphodiesterase 8A (Homo sapiens) (O60658 whole entry): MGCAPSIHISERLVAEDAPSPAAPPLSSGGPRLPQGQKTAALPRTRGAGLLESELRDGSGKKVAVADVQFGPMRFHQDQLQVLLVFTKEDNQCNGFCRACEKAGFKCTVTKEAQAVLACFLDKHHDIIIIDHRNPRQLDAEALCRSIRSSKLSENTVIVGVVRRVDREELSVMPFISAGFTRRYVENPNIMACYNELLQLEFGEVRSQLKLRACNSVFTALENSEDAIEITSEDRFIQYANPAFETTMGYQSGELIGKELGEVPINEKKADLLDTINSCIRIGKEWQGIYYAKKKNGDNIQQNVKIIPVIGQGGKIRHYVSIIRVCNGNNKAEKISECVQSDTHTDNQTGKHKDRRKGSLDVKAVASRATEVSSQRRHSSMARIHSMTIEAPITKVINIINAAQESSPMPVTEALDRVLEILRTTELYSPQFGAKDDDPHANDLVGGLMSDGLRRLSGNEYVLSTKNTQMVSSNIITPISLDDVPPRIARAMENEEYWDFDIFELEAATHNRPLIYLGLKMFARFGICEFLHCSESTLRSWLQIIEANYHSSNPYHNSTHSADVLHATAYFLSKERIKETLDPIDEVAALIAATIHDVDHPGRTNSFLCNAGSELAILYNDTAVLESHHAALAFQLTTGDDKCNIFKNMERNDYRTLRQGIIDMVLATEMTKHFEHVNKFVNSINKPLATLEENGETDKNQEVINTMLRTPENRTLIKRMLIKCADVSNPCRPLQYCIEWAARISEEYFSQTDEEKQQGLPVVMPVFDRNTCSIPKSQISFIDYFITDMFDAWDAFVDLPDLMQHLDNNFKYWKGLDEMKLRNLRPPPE

[2] = AUC (0 to t) in Sprague-Dawley rat at 10 mg/kg, po measured after 24 hrs by LC-MS analysis; format: ADME, organism-based; conditions: in vivo
[3] = test system: Mus musculus; assay: Protection against alcoholic liver disease in NIAAA C57BL/6J mouse model assessed as reduction in serum IL-6 level at 1 to 2.5 mg/kg, po preadministered with 1 to 4 % of alcohol for 10 days with subsequent compound addition from day 6 to 11 and further administered with 31.25 % alcohol on day 11 and measured after 9 hrs by ELISA; format: functional, organism-based; conditions: dose 1-2.5 mg/kg, time 5.0 day
[4] = Selectivity ratio for inhibition of PDE8A1 (unknown origin) using FAM-cyclic-3',5'-AMP as substrate to inhibition of PDE4D7 (unknown origin) using FAM-cyclic-3',5'-AMP as substrate
[5] = Volume of distribution at steady state in Sprague-Dawley rat at 2 mg/kg, iv measured after 24 hrs by LC-MS analysis; format: ADME, organism-based; conditions: in vivo, read-out: Vdss
[6] = test system: Mus musculus; assay: Protection against alcohol-induced motor impairment in C57BL/6J mouse model assessed as increase in distance travelled at 1 to 2.5 mg/kg, po preadministered with compound every 24 hrs for 3 times followed by alcohol administration 30 mins post last dose and further treated with compound for 3 days followed by alcohol administration 30 mins post last dose and measured at 2 to 20 mins by open field test; format: functional, organism-based; conditions: dose 1-2.5 mg/kg, time 8702-8720 min
[7] = test system: HT-22; assay: Cytotoxicity against mouse HT-22 cells assessed as reduction in cell viability incubated for 48 hrs by MTT assay; format: toxicity, cell-based; conditions: ht-22, 48 h
[8] = Toxicity in ketamine/xylazine-induced anesthetic C57BL/6J mouse model assessed as emetogenic potential by measuring reduction in anesthesia duration at 1 to 5 mg/kg, po preadministered with compound for 15 mins followed by ketamine/xylazine administration; format: organism-based; conditions: in vivo, 0.25 h, dose 1-5 mg/kg
[9] = Acute toxicity in C57BL/6J mouse assessed as druggability at 1 g/Kg, po administered for 14 days; format: organism-based; conditions: in vivo, 1000 mg/kg, 336 h, time 14 day
[10] = AUC (0 to t) in Sprague-Dawley rat at 2 mg/kg, iv measured after 24 hrs by LC-MS analysis; format: ADME, organism-based; conditions: in vivo
[11] = Selectivity ratio for inhibition of PDE3B (unknown origin) using FAM-cyclic-3',5'-AMP as substrate to inhibition of PDE4B1 (unknown origin) using FAM-cyclic-3',5'-AMP as substrate
[12] = Selectivity ratio for inhibition of PDE7A (unknown origin) using FAM-cyclic-3',5'-AMP as substrate to inhibition of PDE4D7 (unknown origin) using FAM-cyclic-3',5'-AMP as substrate
[13] = test system: Mus musculus; assay: Protection against alcohol-induced sedation in C57BL/6J mouse model assessed as reduction in sleep time at 1 to 2.5 mg/kg, po preadministered with compound every 24 hrs for 3 times followed by alcohol administration 30 mins post last dose; format: functional, organism-based; conditions: dose 1-2.5 mg/kg, time 72.5 hrs
[14] = Clearance in Sprague-Dawley rat at 2 mg/kg, iv measured after 24 hrs by LC-MS analysis; format: ADME, organism-based; conditions: in vivo
[15] = biological target: High affinity cGMP-specific 3',5'-cyclic phosphodiesterase 9A (Homo sapiens) (UniProt O76083); assay: Inhibition of PDE9A (unknown origin) using FAM-cyclic-3',5'-AMP as substrate at 10 uM incubated for 1 hrs by fluorescence polarization based IMAP assay relative to control
Sequence of High affinity cGMP-specific 3',5'-cyclic phosphodiesterase 9A (Homo sapiens) (O76083 whole entry): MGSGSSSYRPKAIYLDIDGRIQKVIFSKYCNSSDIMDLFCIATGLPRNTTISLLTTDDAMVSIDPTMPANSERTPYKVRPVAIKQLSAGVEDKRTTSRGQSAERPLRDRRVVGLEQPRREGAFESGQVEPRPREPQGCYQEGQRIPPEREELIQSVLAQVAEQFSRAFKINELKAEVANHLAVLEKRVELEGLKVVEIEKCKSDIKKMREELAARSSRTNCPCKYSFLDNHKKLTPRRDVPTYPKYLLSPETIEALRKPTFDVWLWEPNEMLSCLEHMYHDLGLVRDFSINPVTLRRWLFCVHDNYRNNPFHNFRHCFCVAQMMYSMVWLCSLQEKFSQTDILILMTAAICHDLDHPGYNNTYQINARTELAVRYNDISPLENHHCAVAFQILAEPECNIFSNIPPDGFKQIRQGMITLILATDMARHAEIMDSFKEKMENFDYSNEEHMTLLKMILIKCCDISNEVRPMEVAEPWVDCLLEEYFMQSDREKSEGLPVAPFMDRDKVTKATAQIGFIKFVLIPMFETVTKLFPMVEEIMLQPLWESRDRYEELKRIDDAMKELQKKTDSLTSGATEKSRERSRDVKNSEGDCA

[16] = test system: Mus musculus; assay: Protection against alcohol use disorder in C57BL/6J mouse model assessed as decrease in alcohol preference at 1 to 2.5 mg/kg, po pre-trained with alcohol and water for 42 days with subsequent compound addition on day 22 and measured after 3 weeks by two-bottle choice test; format: functional, organism-based; conditions: dose 1-2.5 mg/kg
[17] = biological target: cGMP-inhibited 3',5'-cyclic phosphodiesterase 3B (Homo sapiens) (UniProt Q13370); assay: Inhibition of PDE3B (unknown origin) using FAM-cyclic-3',5'-AMP as substrate at 10 uM incubated for 1 hrs by fluorescence polarization based IMAP assay relative to control
Sequence of cGMP-inhibited 3',5'-cyclic phosphodiesterase 3B (Homo sapiens) (Q13370 whole entry, looked up): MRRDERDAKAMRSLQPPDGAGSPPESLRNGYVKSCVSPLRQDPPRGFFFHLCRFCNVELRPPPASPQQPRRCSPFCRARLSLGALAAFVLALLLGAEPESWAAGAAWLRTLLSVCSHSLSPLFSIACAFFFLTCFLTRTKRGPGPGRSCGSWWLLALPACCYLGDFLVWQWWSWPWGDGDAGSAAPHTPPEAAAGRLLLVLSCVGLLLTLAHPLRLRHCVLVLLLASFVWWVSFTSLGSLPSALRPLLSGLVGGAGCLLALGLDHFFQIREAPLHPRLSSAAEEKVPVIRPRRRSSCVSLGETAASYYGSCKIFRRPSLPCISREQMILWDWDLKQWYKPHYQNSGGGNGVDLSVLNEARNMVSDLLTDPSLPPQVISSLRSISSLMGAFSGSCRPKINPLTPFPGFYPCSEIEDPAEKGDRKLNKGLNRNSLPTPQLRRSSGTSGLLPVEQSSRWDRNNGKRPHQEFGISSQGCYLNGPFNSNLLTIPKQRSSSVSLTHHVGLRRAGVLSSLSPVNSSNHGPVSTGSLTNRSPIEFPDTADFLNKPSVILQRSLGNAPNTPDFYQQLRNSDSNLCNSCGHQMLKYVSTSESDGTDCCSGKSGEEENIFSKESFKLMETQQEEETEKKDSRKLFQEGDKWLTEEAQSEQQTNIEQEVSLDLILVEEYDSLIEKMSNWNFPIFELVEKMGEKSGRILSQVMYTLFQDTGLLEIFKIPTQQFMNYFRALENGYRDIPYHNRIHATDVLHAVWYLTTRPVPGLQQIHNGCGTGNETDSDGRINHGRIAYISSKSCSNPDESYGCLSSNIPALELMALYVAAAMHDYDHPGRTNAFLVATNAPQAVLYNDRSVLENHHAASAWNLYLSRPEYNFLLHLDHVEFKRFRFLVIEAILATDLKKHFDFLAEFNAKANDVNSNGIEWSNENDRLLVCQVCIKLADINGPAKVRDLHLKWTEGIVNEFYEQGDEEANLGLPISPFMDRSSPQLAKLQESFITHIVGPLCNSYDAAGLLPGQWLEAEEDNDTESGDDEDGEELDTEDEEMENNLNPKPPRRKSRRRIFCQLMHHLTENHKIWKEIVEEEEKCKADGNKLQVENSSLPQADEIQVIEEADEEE

[18] = Oral bioavailability in Sprague-Dawley rat at 10 mg/kg measured after 24 hrs by LC-MS analysis; format: ADME, organism-based; conditions: in vivo
[19] = Chemical stability of compound in aqueous solution at pH <6 measured after 48 hrs; format: physicochemical; conditions: buffer
[20] = Drug concentration in Sprague-Dawley rat liver at 10 mg/kg, po administered as single dose for 1 hrs by LC-MS analysis; format: ADME, organism-based; conditions: read-out: Ct
[21] = biological target: T1, 3',5'-cyclic-AMP phosphodiesterase 4D (Homo sapiens, UniProt Q08499); assay: Inhibition of PDE4D7 (unknown origin) using FAM-cyclic-3',5'-AMP as substrate incubated for 1 hrs by fluorescence polarization based IMAP assay
T1 sequence (Q08499 whole entry): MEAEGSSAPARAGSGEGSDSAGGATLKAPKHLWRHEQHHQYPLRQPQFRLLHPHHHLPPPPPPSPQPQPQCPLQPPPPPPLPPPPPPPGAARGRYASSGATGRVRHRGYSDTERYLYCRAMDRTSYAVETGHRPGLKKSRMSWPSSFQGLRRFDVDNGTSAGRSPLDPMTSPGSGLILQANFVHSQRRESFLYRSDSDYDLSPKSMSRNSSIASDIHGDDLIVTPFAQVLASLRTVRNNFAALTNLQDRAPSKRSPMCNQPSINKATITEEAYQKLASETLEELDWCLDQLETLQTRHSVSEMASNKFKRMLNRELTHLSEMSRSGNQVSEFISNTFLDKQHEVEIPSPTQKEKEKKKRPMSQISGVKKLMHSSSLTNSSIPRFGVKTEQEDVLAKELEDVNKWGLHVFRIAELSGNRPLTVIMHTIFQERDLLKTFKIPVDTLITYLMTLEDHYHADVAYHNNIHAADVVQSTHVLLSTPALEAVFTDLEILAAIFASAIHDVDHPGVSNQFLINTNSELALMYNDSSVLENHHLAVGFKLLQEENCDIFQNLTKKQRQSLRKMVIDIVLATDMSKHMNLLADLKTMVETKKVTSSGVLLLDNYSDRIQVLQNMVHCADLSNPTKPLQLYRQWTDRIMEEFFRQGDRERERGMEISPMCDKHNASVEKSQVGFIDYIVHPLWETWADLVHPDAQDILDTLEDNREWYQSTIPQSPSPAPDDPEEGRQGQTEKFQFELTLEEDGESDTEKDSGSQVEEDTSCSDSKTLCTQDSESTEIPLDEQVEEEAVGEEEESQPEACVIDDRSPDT

[22] = Drug concentration in Sprague-Dawley rat liver at 10 mg/kg, po administered as single dose for 2 hrs by LC-MS analysis; format: ADME, organism-based; conditions: read-out: Ct
[23] = test system: Mus musculus; assay: Protection against alcoholic liver disease in NIAAA C57BL/6J mouse model assessed as decrease in liver index at 2.5 mg/kg, po preadministered with 1 to 4 % of alcohol for 10 days with subsequent compound addition from day 6 to 11 and further administered with 31.25 % alcohol on day 11 and measured after 9 hrs; format: functional, organism-based; conditions: time 5.0 day
[24] = test system: SH-SY5Y; assay: Protection against alcohol-induced cytotoxicity in human SH-SY5Y cells assessed as increase in cell viability at 0.25 to 1 uM preincubated with compound for 1 hrs followed by ethanol administration and measured after 24 hrs by CCK8 assay; format: functional, cell-based; conditions: dose 0.25-1 µM, time 25.0 hrs
[25] = biological target: T1, 3',5'-cyclic-AMP phosphodiesterase 4D; assay: Inhibition of PDE4D7 (unknown origin) using FAM-cyclic-3',5'-AMP as substrate at 100 nM incubated for 1 hrs by fluorescence polarization based IMAP assay relative to control
[26] = test system: Mus musculus; assay: Protection against alcoholic liver disease in NIAAA C57BL/6J mouse model assessed as reduction in liver IL-6 mRNA level at 1 to 2.5 mg/kg, po preadministered with 1 to 4 % of alcohol for 10 days with subsequent compound addition from day 6 to 11 and further administered with 31.25 % alcohol on day 11 and measured after 9 hrs by RT-qPCR analysis; format: functional, organism-based; conditions: dose 1-2.5 mg/kg, time 5.0 day
[27] = test system: Mus musculus; assay: Protection against alcoholic liver disease in NIAAA C57BL/6J mouse model assessed as improvement of steatosis at 1 to 2.5 mg/kg, po preadministered with 1 to 4 % of alcohol for 10 days with subsequent compound addition from day 6 to 11 and further administered with 31.25 % alcohol on day 11 and measured after 9 hrs by Oil Red O staining based light microscopic analysis; format: functional, organism-based; conditions: dose 1-2.5 mg/kg, time 5.0 day
[28] = biological target: T1, 3',5'-cyclic-AMP phosphodiesterase 4D; assay: Inhibition of PDE4D7 (unknown origin) using FAM-cyclic-3',5'-AMP as substrate at 10 nM incubated for 1 hrs by fluorescence polarization based IMAP assay relative to control

With `CCOc1nc(Cl)cc2c1cnn2CCCC(=O)O` the inhibition [1] was 9%, the AUC(0-t) at 24 h [2] was 669 µg·h/mL and the Activity [3] was “Active”. For the same compound, the Selectivity ratio [4] was > 267, the Vd [5] was 0.0719 L/kg and the Activity [6] was “Active”. The Activity [7] was “Non-Toxic”, the Activity [8] was “Non-Toxic” and the Activity [9] was “Non-Toxic”. The AUC(0-t) at 24 h [10] was 142 µg·h/mL, the Selectivity ratio [11] was > 267 and the Selectivity ratio [12] was > 267. The Activity [13] was “Active”, the clearance [14] was 0.211 mL/min/kg and the inhibition [15] was 9%. The Activity [16] was “Active”, the inhibition [17] was 10% and the bioavailability [18] was 94.1%. For the same compound, the Stability [19] was “Stable”, the concentration at 1 h [20] was 11200 ng/g and the pIC50 [21] was 7.43. The concentration at 2 h [22] was 8120 ng/g, the Activity [23] was “Active” and the Activity [24] was “Active”. The inhibition [25] was 72%, the Activity [26] was “Active” and the Activity [27] was “Active”. It also gave an inhibition [28] of 21%.
